Several values for one entry are separate records, joined by “and”; a condition that tells them apart may be missing. Identical values can stand only once.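 The compound was tested at five concentrations on cells cultured in 96-well plates, with a 48-hour exposure period. Here, GI50 denotes the concentration required for 50% inhibition of growth. Definition used: TGI = concentration required for complete inhibition of growth.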
Columns and labels:
Test in all cases: NCI-60 cell line screen, 48 h
[1] = tested on: RPMI-8226 leukemia
[2] = tested on: NCI-H522 lung
[3] = tested on: SNB-19 CNS
[4] = tested on: HL-60(TB) leukemia
[5] = tested on: NCI-H226 lung
[6] = tested on: HCT-15 colon
[7] = tested on: PC-3 prostate
[8] = tested on: OVCAR-3 ovarian
[9] = tested on: OVCAR-5 ovarian
[10] = tested on: UACC-257 melanoma

Row | SMILES | GI50 [1] | TGI [1] | GI50 [2] | TGI [2] | GI50 [3] | TGI [3] | GI50 [4] | TGI [4] | GI50 [5] | TGI [5] | GI50 [6] | TGI [6] | GI50 [7] | TGI [7] | GI50 [8] | TGI [8] | GI50 [9] | TGI [9] | GI50 [10] | TGI [10]
1 | O=c1c(Cl)nnc2sc3ccccc3n12 | 27.9 µM | > 100 µM | > 100 µM | > 100 µM | 77.5 µM | > 100 µM | 18.3 µM | > 100 µM | 43.1 µM | > 100 µM | 16.5 µM | 54.3 µM | 47.8 µM | > 100 µM | 34.4 µM | > 100 µM | 54.1 µM | > 100 µM |  | 
2 | COc1cc[nH]c1/C=C1\C(=O)Nc2ccc(F)c(C#C[C@@H](O)[C@@H](N)[C@@H](C)O)c21 | 0.683 µM | 1.83 µM | 0.575 µM | 1.77 µM | 0.909 µM | 5.51 µM | 0.42 µM | 1.55 µM | 0.526 µM | 2.54 µM | 0.839 µM | 18.3 µM | 0.369 µM | 1.6 µM | 0.685 µM | 2.26 µM | 0.673 µM | 5.14 µM | 0.628 µM | 2.17 µM
3 | O=C(Nc1ccncc1)C(=O)c1cn(S(=O)(=O)c2ccc(Br)cc2)c2ccccc12 | 4.56 µM | > 100 µM | 1.94 µM | > 100 µM | 14.1 µM | > 100 µM | 2.41 µM | > 100 µM | 20.9 µM | > 100 µM | 3.81 µM | > 100 µM | 8.87 µM | > 100 µM | 4.54 µM | > 100 µM | > 100 µM | > 100 µM | 7.62 µM | > 100 µM
4 | C[C@@H](c1ccc2nccn2c1)n1nnc2ncc(-c3cnn(C)c3)nc21 | 47.6 µM | > 100 µM | > 100 µM | > 100 µM | > 100 µM | > 100 µM | > 100 µM | > 100 µM | > 100 µM | > 100 µM | > 100 µM | > 100 µM | > 100 µM | > 100 µM | > 100 µM | > 100 µM | > 100 µM | > 100 µM | > 100 µM | > 100 µM
5 | COc1ccccc1C(=O)/C=C/c1cc2cccc(OC)c2[nH]c1=O | < 0.0181 µM | 1.42 µM | 0.101 µM | 2.16 µM | 0.0332 µM | 1.47 µM | 0.0144 µM | 0.0583 µM | 0.0716 µM | 3.47 µM | 0.027 µM | 1.73 µM | 0.0503 µM | 2.27 µM | 0.0343 µM | 0.6 µM | 0.321 µM | 2.89 µM | 1.63 µM | 9.26 µM
6 | CCOC(=O)CCC(NC(=O)c1ccc(N=Cc2nc3cc(C(F)(F)F)ccc3nc2-c2ccccc2)cc1)C(=O)OCC (centres undefined) | > 100 µM | > 100 µM | 21.5 µM | 50 µM and > 100 µM | 8.51 µM | 29.2 µM and 31.9 µM | 65.3 µM | 50 µM and > 100 µM | > 100 µM | > 100 µM | > 100 µM | > 100 µM |  | > 50 µM | > 100 µM | 50 µM and > 100 µM | > 100 µM | > 100 µM | > 100 µM | > 100 µM
7 | COc1cc(CCc2cc(NC(=O)c3ccc(N4C[C@@H](C)N[C@@H](C)C4)cc3)n[nH]2)cc(OC)c1 | 4.82 µM and 4.65 µM | > 10 µM and 19.6 µM | > 10 µM and 9.95 µM | > 10 µM and 24.5 µM | > 10 µM and 14.9 µM | > 10 µM and 30.8 µM | 2.47 µM and 4.15 µM | > 10 µM and 14.9 µM |  | > 10 µM and 21.3 µM | > 10 µM and 9.71 µM | > 10 µM and 23.6 µM | > 10 µM and 6.92 µM | > 10 µM and 23.9 µM | > 10 µM and 15.7 µM | > 10 µM and 30 µM | > 10 µM and 5.01 µM | > 10 µM and 16.9 µM | > 10 µM and 2.08 µM | > 10 µM and 5.31 µM
8 | CC1(C)CC(=O)C2=C(C1)NC(SSC1=C(C#N)C(c3ccccc3)C3=C(CC(C)(C)CC3=O)N1)=C(C#N)C2c1ccccc1 (centres undefined) | 46.5 µg/mL | 134 µg/mL | 26.1 µg/mL | 47.7 µg/mL | 89.2 µg/mL | > 150 µg/mL | 33.7 µg/mL | 97.8 µg/mL | 32 µg/mL | 70.8 µg/mL | 26.8 µg/mL | 48.8 µg/mL | 26.1 µg/mL | 47.5 µg/mL | 26.3 µg/mL | 47.8 µg/mL | 27.8 µg/mL | 50.9 µg/mL | 25.4 µg/mL | 46 µg/mL
9 | Cc1ccc(-c2c(C#N)c(N)nc(N3CCOCC3)c2C#N)o1 | 49.8 µM | > 100 µM | 36.4 µM | > 100 µM |  |  | 46.3 µM | > 100 µM | 46.8 µM | > 100 µM |  |  | 30.6 µM | > 100 µM |  |  | 27.4 µM | > 100 µM | 99.8 µM | > 100 µM
10 | COc1cc(C(=O)O)c([N+](=O)[O-])c(OC)c1OC |  | > 100 µM |  | > 100 µM |  | > 100 µM |  |  |  | > 100 µM |  | > 100 µM |  | > 100 µM |  | > 100 µM |  | > 100 µM |  | > 100 µM

From PubChem BioAssay (NCI)
